How the values were obtained:
Format in all cases: in vivo
Megoura viciae = assay: Vetch aphid (Megoura viciae) through contact or systemic means, broad bean leaf disks; settings: foliar, 120 h, read-out: mortality in comparison with untreated controls
Protocol: B.10 Vetch Aphid (Megoura viciae)
For evaluating control of vetch aphid (Megoura viciae) through contact or systemic means the test unit consisted of 24-well-microtiter plates containing broad bean leaf disks.
The compounds were formulated using a solution containing 75% v/v water and 25% v/v DMSO. Different concentrations of formulated compounds were sprayed onto the leaf disks at 2.5 μl, using a custom built micro atomizer, at two replications.
After application, the leaf disks were air-dried and 5-8 adult aphids placed on the leaf disks inside the microtiter plate wells. The aphids were then allowed to suck on the treated leaf disks and incubated at about 23±1° C. and about 50±5% relative humidity for 5 days. Aphid mortality and fecundity was then visually assessed.

Aedes aegypti = assay: whole plant or invertebrate; settings: 48 h, larval mortality after 2 days, read-out: mortality in comparison with untreated controls
Protocol: B.11 Yellow Fever Mosquito (Aedes aegypti)
For evaluating control of yellow fever mosquito (Aedes aegypti) the test unit consisted of 96-well-microtiter plates containing 200 μl of tap water per well and 5-15 freshly hatched A. aegypti larvae.
The active compounds were formulated using a solution containing 75% (v/v) water and 25% (v/v) DMSO. Different concentrations of formulated compounds or mixtures were sprayed onto the insect diet at 2.5 μl, using a custom built micro atomizer, at two replications.
After application, microtiter plates were incubated at 28+1° C., 80+5% RH for 2 days. Larval mortality was then visually assessed.

Myzus persicae = assay: Green peach aphid (Myzus persicae) through systemic means, artificial diet under membrane in microtiter plates; settings: 72 h, read-out: mortality in comparison with untreated controls
From the text: For evaluating control of green peach aphid (Myzus persicae) through systemic means the test unit consisted of 96-well-microtiter plates containing liquid artificial diet under an artificial membrane.
The compounds were formulated using a solution containing 75% v/v water and 25% v/v DMSO. Different concentrations of formulated compounds were pipetted into the aphid diet, using a custom built pipetter, at two replications.
After application, 5-8 adult aphids were placed on the artificial membrane inside the microtiter plate wells. The aphids were then allowed to suck on the treated aphid diet and incubated at about 23±1° C. and about 50±5% relative humidity for 3 days. Aphid mortality and fecundity was then visually assessed.

Nephotettix virescens = assay: Rice green leafhopper (Nephotettix virescens) on sprayed rice seedlings; settings: 72 h, read-out: mortality in comparison with untreated controls
Protocol: B.7 Rice Green Leafhopper (Nephotettix virescens)
(§1) Rice seedlings were cleaned and washed 24 hours before spraying. The active compounds were formulated in 1:1 acetone:water (vol:vol), and 0.01% vol/vol surfactant (Kinetic HV) was added. Potted rice seedlings were sprayed with 5-6 ml test solution, air dried, covered with Mylar cages cages and inoculated with 10 adults. Treated rice plants were kept at about 28-29° C. and relative humidity of about 50-60%. Percent mortality was recorded after 72 hours.

Aphis craccivora = assay: Cowpea aphid (Aphis craccivora) on sprayed cowpea plants; settings: 72 h, read-out: mortality in comparison with untreated controls
Protocol: B.3 Cowpea Aphid (Aphis craccivora)
The active compound is dissolved at the desired concentration in a mixture of 1:1 (vol:vol) distilled water:acetone. Surfactant (Kinetic HV) is added at a rate of 0.01% (vol/vol). The test solution is prepared at the day of use.
Potted cowpea plants were colonized with approximately 50-100 aphids of various stages by manually transferring a leaf tissue cut from infested plant 24 hours before application. Plants were sprayed after the pest population has been recorded. Treated plants are maintained on light carts at about 28° C. Percent mortality was assessed after 72 hours.

Ceratitis capitata = assay: Mediterranean fruitfly (Ceratitis capitata) control, microtiter plates with insect diet and eggs; settings: 120 h, read-out: mortality in comparison with untreated controls
Protocol: B.5 Mediterranean Fruitfly (Ceratitis capitata)
For evaluating control of Mediterranean fruitfly (Ceratitis capitata) the test unit consisted of microtiter plates containing an insect diet and 50-80 C. capitata eggs.
The compounds were formulated using a solution containing 75% v/v water and 25% v/v DMSO. Different concentrations of formulated compounds were sprayed onto the insect diet at 5 μl, using a custom built micro atomizer, at two replications.
After application, microtiter plates were incubated at about 28±1° C. and about 80±5% relative humidity for 5 days. Egg and larval mortality was then visually assessed.

Nilaparvata lugens = assay: Rice brown plant hopper (Nilaparvata lugens) on sprayed rice seedlings; settings: 100 ppm; after 72 hours
Protocol: B.9 Rice Brown Plant Hopper (Nilaparvata lugens)
as §1, with “(vol:vol)” for “(vol:vol),”, “5” for “5-6”, “Mylar” for “Mylar cages”

SMILES	mortality at 2500 ppm (Megoura viciae) [%]	mortality at 2500 ppm (Aedes aegypti) [%]	mortality at 2500 ppm (Myzus persicae) [%]	mortality at 500 ppm (Nephotettix virescens) [%]	mortality at 500 ppm (Aphis craccivora) [%]	mortality at 2500 ppm (Ceratitis capitata) [%]	mortality in comparison with untreated controls (Nilaparvata lugens)
CO/N=C/C(=O)ON=c1ccccn1Cc1cnc(Cl)s1 (mixture of isomers) [IA.1-4, [(E/Z)-[1-[(2-chlorothiazol-5-yl)methyl]-2-pyridylidene]amino] (2E/Z)-2-methoxyimino-acetate]	≥ 75	≥ 75	≥ 75				
CNC(=O)NN=c1ccccn1Cc1ccc(Cl)nc1 (mixture of isomers) [IB.1-1, 1-[(E/Z)-[1-[(6-chloro-3-pyridyl)methyl]-2-pyridylidene]amino]-3-methyl-urea]	≥ 75	≥ 75	≥ 75	≥ 75	≥ 75	≥ 75	
O=C(NCC(F)(F)F)NN=c1ccccn1Cc1ccc(Cl)nc1 [IB.1-3]							at least 75%

Source: US20160326153A1, “N-SUBSTITUTED IMINO HETEROCYCLIC COMPOUNDS” (BASF SE, priority 2013, published 2016)
